Measured values published in publication PMC8288134, “Synthesis, potential antitumor activity, cell cycle analysis, and multitarget mechanisms of novel hydrazones incorporating a 4-methylsulfonylbenzene scaffold: a molecular docking study” (Journal of Enzyme Inhibition and Medicinal Chemistry, 2021).
Read-outs that look alike come from different tables or passages of the source.

How the values were obtained:
[1] = system: A549/ATCC; test: NCI antitumor screen (SRB); assay type: cell-based; settings: Homo sapiens, one dose 10 µM, read-out: Growth inhibition percentage (GI%)
[2] = system: HOP-62; test: NCI antitumor screen (SRB); assay type: cell-based; settings: Homo sapiens; HOP-62; one dose 10 µM; read-out: Growth inhibition percentage (GI%)
[3] = system: NCI-H226; test: NCI antitumor screen (SRB); assay type: cell-based; settings: Homo sapiens, one dose 10 µM, read-out: Growth inhibition percentage (GI%)
[4] = system: NCI-H522; test: NCI antitumor screen (SRB); assay type: cell-based; settings: Homo sapiens
[5] = system: HT29; test: NCI antitumor screen (SRB); assay type: cell-based; settings: Homo sapiens, HT-29, one dose 10 µM, read-out: Growth inhibition percentage (GI%)
[6] = system: SNB-75; test: NCI antitumor screen (SRB); assay type: cell-based; settings: Homo sapiens, one dose 10 µM, read-out: Growth inhibition percentage (GI%)
[7] = system: UACC-257; test: NCI antitumor screen (SRB); assay type: cell-based, human; settings: Homo sapiens, one dose 10 µM, read-out: Growth inhibition percentage (GI%)
[8] = system: UO-31; test: NCI antitumor screen (SRB); assay type: cell-based, human; settings: Homo sapiens, UO-31, UO-31; one dose 10 µM; read-out: Growth inhibition percentage (GI%)
[9] = system: MDA-MB-468; test: NCI antitumor screen (SRB); assay type: cell-based; settings: Homo sapiens, one dose 10 µM, read-out: Growth inhibition percentage (GI%)
[10] = system: full panel of 59 cancer cell lines; test: NCI antitumor screen, full panel; settings: one dose 10 µM
[11] = system: HL-60(TB); test: cells; assay type: cell-based, human; settings: Homo sapiens, HL-60, HL-60(TB); one dose 10 µM; read-out: Growth inhibition percentage (GI%)
[12] = system: K-562; test: NCI antitumor screen (SRB); assay type: cell-based; settings: Homo sapiens, K562, read-out: Growth inhibition percentage (GI%)
[13] = system: MOLT-4; test: NCI antitumor screen (SRB); assay type: cell-based; settings: Homo sapiens, one dose 10 µM, read-out: Growth inhibition percentage (GI%)
[14] = system: SR; test: NCI antitumor screen (SRB); assay type: cell-based; settings: Homo sapiens, one dose 10 µM, read-out: Growth inhibition percentage (GI%)
[15] = system: HCT-116; test: NCI antitumor screen (SRB); assay type: cell-based; settings: Homo sapiens, read-out: Growth inhibition percentage (GI%)
[16] = system: MALME-3M; test: NCI antitumor screen (SRB); assay type: cell-based; settings: Homo sapiens, one dose 10 µM, read-out: Growth inhibition percentage (GI%)
[17] = system: UACC-62; test: NCI antitumor screen (SRB); assay type: cell-based; settings: Homo sapiens, one dose 10 µM, read-out: Growth inhibition percentage (GI%)
[18] = system: IGROV1; test: NCI antitumor screen (SRB); assay type: cell-based; settings: Homo sapiens, IGROV-1, one dose 10 µM, read-out: Growth inhibition percentage (GI%)
[19] = system: A498; test: NCI antitumor screen (SRB); assay type: cell-based; settings: Homo sapiens, one dose 10 µM, read-out: Growth inhibition percentage (GI%)
[20] = system: CAKI-1; test: NCI antitumor screen (SRB); assay type: cell-based; settings: Homo sapiens, one dose 10 µM, read-out: Growth inhibition percentage (GI%)
[21] = system: PC-3; test: NCI antitumor screen (SRB); assay type: cell-based; settings: Homo sapiens, one dose 10 µM, read-out: Growth inhibition percentage (GI%)

In the case of CS(=O)(=O)c1ccc(C(=O)NN=Cc2ccc(Cl)cc2Cl)cc1 [Compound 17, N'-(2,4-Dichlorobenzylidene)-4-(methylsulfonyl)benzohydrazide], the inhibition at 10 µM [1] was 13.7%, the inhibition at 10 µM [2] was 10.2% and the inhibition at 10 µM [3] was 13.6%. For the same molecule, the inhibition at 10 µM ([4]; NCI-H522, one dose 10 µM, read-out: Growth inhibition percentage (GI%)) was 25%, the inhibition at 10 µM [5] was 11.3% and the inhibition at 10 µM [6] was 10.9%. The inhibition at 10 µM ([7]; UACC-257, UACC-257) was 29.4%, the inhibition at 10 µM [8] was 12.7% and the inhibition at 10 µM [9] was 18.1%. The “PCE: positive cytotoxic effect (number of cell lines with GI 10 to 100% / total number of cell lines)” value [10] was 9/59.

CS(=O)(=O)c1ccc(C(=O)NN=Cc2ccc(Cl)c(Cl)c2)cc1 [Compound 18, N'-(3,4-Dichlorobenzylidene)-4-(methylsulfonyl)benzohydrazide] was tested, and the inhibition at 10 µM [11] was 30.6%, the inhibition at 10 µM [12] was 17.7% and the inhibition at 10 µM [13] was 31.7%. The inhibition at 10 µM [14] was 24.5%, the inhibition at 10 µM [1] was 20.1% and the inhibition at 10 µM ([4]; NCI-H522, read-out: Growth inhibition percentage (GI%)) was 17.2%. It also gave an inhibition at 10 µM [15] of 12.7%, an inhibition at 10 µM [16] of 12.2% and an inhibition at 10 µM ([7]; UACC-257) of 21.8%. The inhibition at 10 µM [17] was 11.2%, the inhibition at 10 µM [18] was 15% and the inhibition at 10 µM [19] was 16%. The inhibition at 10 µM [20] was 10.1%, the inhibition at 10 µM [21] was 10.3% and the “PCE: positive cytotoxic effect (number of cell lines with GI 10 to 100% / total number of cell lines)” value [10] was 14/59.
